Data on two compounds can be found in US11160793B2, “Solid dosage forms of bendamustine” (Astellas Deutschland GmbH, priority 2008, dated 2021).

Structures are written as SMILES. Structures can show the parent of a compound that is named as a salt.

The conditions of series [1]: 4.2-5.5 mg/kg, 7 patients, cited from earlier work.
For series [2] the following is noted: B6D2F1-mice, absorption from the gastro-intestinal tract; cited from earlier work.
The nature of series [3]: Stability of aqueous solution of bendamustine as a function of pH (hydrolysis). It counts as physicochemical.

Regarding `Cn1c(CCCC(=O)O)nc2cc(N(CCCl)CCCl)ccc21` [bendamustine hydrochloride], the mean oral bioavailability in series [1] (25 mg capsules vs intravenous) is 57%. Also, the “time to maximal plasma levels after oral administration” value in series [1] (25 mg capsules) was no more than 1 h. In addition, the bio-availability entry in series [2] is given as “about 40%”.

For the compound `Cn1c(CCCC(=O)O)nc2cc(N(CCCl)CCCl)ccc21` [bendamustine, 4-[5-[bis(2-chloroethyl)amino]-1-methylbenzimidazo-2-yl]butanoic acid], the “pH above which significant hydrolytic decomposition is observed” value in series [3] is “higher than 5”.
